Source: US20100261710A1, “HDAC Inhibitors” (ARQULE, INC., priority 2007, published 2010)

Tests used:
[1] = target: T1, HDAC9 (Homo sapiens, UniProt Q9UKV0); experiment: HDAC isoform assay, HDAC9; assay type: biochemical
T1 construct: purchased BioMol

[2] = target: T2, HDAC1 (Homo sapiens, UniProt Q13547); experiment: HDAC-1 immunocapture fluorescent biochemical assay (HeLa lysate); conditions: HDAC1 immunocaptured from HeLa extract
T2 construct: cell extract containing HDAC (HeLa in these experiments); endogenous in cells; host or cells: HeLa cell extract
T2 sequence (Q13547 whole entry): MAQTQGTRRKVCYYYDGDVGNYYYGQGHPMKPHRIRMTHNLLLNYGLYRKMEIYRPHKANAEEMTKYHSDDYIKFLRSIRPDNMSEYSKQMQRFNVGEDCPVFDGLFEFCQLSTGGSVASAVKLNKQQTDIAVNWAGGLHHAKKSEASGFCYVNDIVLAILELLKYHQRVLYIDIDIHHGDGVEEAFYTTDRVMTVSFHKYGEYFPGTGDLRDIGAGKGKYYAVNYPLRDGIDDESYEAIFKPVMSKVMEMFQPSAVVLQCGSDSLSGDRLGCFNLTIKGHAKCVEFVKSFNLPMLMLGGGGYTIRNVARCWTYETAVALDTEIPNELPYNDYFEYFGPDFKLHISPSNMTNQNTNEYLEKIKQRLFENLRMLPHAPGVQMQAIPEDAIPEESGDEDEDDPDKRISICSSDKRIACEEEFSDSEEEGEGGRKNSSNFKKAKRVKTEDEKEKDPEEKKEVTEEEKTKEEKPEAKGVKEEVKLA
Procedure: The HDAC-1 assay represents a novel immunocapture assay procedure. […] The HDAC1 is captured on a protein A coated plate using HDAC1 specific antibody, and is then allowed to react with the substrate.
This assay in performed in four general steps. In the first step (FIG. 1A), cell extract containing HDAC (HeLa in these experiments) is incubated with (cell signaling) rabbit polyclonal HDAC1 antibody (rabbit IgG antibody is used for background control) to allow binding of the enzyme to the antibody. In the second step, the complexed mixture is added to the protein A covered plate which captures the antibody. In the third step, after washing away unbound proteins, substrate and inhibitor are added and deacetylation is allowed to occur. […] The plate is then read on either Victor or Perkin Elmer Envision system using Umbilliferone filter set.
• A. HeLa extract complexed with HDAC1 antibody working solution (in DPBS):
Compound working solution (in HDAC buffer):
Compounds diluted in assay buffer at 2× Screening concentration. • D. Activator solution:
Trypsin (10 mg/mL) diluted 1:1600 in assay buffer containing 4 μM TSA.
Complexing of extract with antibody was carried out at room temperature for 60 min with rocking. Binding of complexes onto protein A plate was carried out at room temperature for 60 min in 50 μL. Reaction was carried out in […], in the protein A plate for 60 minutes at 37° C. 40 μL of the reaction was moved into white ½ area plate for activation and reading.
• 1. Set PIERCE Protein A plate to block with 150 μof 5% BSA in TB ST for 60 min at room temperature. • 2. […] Dilute complexes further ([…]) by addition of 3.5 mL of PBS (final total volume of 5 mL). • 4. Wash blocked protein A plate prior to complex addition with TBST. • 5. Add 50 μl of diluted complexes to Protein A plate and incubate for 60 min at room temperature. • 6. Wash plate with TB ST. • 7. Add 25 μl of diluted compounds (in HDAC buffer) to each well and incubate for 10 min at room temperature. • 8. […] Move 40 μl of reaction to a white plate and add 20 μl of activator/developer solution, mix thoroughly. • 10. Read plate.

[3] = tested on: MJ cells; experiment: MTS cell viability assay, MJ; assay type: cell-based; conditions: 72 hr, read-out: MJ, IG50, MTS
Procedure: (§1) The MTS cell viability assay was used to determine the potency of proliferation inhibitor with. MTS measures mitochondrial dehydrogenase activity and serves as surrogate readout for the number of viable cells.
(§2) For MTS assay, cells were plated in 96-well plates at 2000 cells per well and incubated in the presence of compounds for 72 hr. MTS was added to each well as instructed by manufacture (Promega) and plates were incubated for 4 h at 37° C. The absorbance of each well was measured at 490 nm using a microplate reader.

[4] = target: T3, HDAC4 (Homo sapiens, UniProt P56524); experiment: HDAC isoform assay, HDAC4; assay type: biochemical; conditions: substrate KI-177; read-out: HDAC4, IC50, ELISA (KI-177)
T3 construct: purchased BioMol
T3 sequence (P56524 whole entry, canonical isoform): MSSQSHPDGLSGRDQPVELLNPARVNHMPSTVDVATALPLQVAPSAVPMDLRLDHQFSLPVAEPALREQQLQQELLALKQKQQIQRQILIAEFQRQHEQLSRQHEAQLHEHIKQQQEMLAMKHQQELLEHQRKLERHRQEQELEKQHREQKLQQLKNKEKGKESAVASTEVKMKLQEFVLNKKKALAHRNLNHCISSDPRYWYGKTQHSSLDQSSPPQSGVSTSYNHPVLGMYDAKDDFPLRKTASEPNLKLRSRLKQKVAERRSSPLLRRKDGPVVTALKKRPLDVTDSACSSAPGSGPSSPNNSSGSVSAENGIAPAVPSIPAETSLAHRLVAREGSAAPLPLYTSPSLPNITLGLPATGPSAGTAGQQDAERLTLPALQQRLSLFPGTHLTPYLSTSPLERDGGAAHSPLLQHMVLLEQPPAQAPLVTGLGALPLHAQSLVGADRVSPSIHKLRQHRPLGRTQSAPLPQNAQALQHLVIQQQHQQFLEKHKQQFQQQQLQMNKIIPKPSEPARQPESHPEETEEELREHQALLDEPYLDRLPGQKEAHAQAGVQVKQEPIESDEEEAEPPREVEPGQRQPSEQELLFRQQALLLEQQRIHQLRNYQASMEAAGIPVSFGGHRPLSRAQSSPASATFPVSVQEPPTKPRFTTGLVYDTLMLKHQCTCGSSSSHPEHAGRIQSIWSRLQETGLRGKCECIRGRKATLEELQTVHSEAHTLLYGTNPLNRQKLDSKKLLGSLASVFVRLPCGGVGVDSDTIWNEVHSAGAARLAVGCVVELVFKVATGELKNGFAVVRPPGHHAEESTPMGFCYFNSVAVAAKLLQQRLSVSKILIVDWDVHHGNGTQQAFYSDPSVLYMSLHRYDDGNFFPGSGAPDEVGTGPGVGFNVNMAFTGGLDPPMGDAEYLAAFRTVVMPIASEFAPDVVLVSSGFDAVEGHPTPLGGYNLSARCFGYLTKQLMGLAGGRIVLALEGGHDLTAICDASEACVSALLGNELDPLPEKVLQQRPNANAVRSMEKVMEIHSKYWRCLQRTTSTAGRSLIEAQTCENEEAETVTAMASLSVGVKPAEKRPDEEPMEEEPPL

[5] = target: T4, HDAC2 (Homo sapiens, UniProt Q92769); experiment: HDAC isoform assay, HDAC2; assay type: biochemical; conditions: substrate KI-177; read-out: HDAC2, IC50, ELISA (KI-177)
T4 construct: purchased BioMol
T4 sequence (Q92769 whole entry, canonical isoform): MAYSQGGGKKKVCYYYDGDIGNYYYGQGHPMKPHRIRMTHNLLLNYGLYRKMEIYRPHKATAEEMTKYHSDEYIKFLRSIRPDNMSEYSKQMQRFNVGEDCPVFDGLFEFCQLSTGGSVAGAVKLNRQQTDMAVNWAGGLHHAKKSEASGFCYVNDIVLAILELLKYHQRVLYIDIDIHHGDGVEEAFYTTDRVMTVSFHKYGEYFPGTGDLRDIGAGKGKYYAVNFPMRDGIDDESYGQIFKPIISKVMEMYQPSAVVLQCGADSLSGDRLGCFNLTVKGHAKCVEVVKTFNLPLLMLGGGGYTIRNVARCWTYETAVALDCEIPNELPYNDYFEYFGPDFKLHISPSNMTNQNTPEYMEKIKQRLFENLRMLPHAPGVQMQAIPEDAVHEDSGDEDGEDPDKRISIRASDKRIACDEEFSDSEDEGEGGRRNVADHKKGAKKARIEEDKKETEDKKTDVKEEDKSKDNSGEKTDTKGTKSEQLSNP

[6] = target: T5, HDAC6 (Homo sapiens, UniProt Q9UBN7); experiment: HDAC isoform assay, HDAC6
T5 sequence (Q9UBN7 1-1215): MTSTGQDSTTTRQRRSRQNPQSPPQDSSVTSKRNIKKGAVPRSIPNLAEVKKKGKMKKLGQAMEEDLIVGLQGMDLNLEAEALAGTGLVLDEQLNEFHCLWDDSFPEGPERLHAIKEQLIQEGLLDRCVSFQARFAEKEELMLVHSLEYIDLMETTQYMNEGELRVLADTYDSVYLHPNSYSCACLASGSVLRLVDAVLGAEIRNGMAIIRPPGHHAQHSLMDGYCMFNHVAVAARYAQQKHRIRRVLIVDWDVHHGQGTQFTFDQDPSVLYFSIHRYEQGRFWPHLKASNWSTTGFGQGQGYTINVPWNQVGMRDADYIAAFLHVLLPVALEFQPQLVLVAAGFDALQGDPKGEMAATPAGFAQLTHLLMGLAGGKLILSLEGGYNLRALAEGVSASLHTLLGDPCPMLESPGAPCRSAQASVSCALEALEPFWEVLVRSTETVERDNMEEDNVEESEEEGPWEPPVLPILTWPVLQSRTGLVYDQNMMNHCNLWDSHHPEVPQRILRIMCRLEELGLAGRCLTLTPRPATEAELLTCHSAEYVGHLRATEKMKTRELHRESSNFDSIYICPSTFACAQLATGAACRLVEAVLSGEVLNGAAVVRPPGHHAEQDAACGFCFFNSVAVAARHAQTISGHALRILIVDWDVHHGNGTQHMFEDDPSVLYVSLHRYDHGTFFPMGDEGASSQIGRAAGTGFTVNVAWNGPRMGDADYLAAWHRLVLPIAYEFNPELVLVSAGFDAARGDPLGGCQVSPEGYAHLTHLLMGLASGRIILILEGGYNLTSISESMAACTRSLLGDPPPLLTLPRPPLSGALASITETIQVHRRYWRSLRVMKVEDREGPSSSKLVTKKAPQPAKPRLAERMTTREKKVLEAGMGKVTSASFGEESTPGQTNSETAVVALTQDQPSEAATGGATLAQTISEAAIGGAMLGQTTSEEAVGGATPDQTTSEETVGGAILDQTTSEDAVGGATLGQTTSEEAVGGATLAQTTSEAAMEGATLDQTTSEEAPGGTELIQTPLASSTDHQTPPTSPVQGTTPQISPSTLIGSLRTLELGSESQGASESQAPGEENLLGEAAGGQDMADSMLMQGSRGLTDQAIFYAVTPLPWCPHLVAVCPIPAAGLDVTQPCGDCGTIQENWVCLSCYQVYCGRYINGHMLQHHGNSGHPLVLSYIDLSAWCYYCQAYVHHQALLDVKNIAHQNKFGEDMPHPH

[7] = target: HDAC5 (Homo sapiens, UniProt Q9UQL6); experiment: HDAC isoform assay, HDAC5
Chain of HDAC5 (Q9UQL6 whole entry, canonical isoform): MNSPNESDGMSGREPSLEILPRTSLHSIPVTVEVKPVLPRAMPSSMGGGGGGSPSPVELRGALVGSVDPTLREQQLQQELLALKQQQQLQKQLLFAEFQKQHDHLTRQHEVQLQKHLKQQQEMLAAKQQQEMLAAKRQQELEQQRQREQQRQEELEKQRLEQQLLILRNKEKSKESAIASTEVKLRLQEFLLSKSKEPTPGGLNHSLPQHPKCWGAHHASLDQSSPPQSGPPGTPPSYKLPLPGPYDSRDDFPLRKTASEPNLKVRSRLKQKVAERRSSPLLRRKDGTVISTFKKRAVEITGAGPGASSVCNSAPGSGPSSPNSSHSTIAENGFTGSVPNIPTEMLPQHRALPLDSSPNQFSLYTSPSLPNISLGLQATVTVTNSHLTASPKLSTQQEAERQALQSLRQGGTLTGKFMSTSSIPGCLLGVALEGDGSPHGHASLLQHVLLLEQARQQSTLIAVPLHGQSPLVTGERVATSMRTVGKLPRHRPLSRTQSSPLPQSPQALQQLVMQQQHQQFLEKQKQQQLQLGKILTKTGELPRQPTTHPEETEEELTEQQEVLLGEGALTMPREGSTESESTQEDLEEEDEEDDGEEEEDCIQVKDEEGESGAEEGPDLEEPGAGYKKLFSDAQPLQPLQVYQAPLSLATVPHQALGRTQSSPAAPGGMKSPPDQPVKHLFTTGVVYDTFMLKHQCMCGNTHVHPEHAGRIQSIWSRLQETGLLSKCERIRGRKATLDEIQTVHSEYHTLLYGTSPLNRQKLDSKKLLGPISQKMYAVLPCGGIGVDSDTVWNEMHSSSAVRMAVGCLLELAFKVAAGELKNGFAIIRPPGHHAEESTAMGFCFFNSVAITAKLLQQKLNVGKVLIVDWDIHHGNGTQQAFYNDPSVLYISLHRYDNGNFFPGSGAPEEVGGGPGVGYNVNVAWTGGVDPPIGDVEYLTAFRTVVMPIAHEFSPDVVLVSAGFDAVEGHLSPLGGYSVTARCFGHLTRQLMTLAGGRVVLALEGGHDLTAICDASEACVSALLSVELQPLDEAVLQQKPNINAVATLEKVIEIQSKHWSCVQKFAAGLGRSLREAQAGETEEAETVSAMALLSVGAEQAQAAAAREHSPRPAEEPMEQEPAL

[8] = tested on: Hut78 cells; experiment: MTS cell viability assay, Hut78; assay type: cell-based; conditions: Homo sapiens; Hut78, 72 hr; read-out: Hut78, IG50, MTS
Procedure: as §1, §2

[9] = target: T6, HDAC3 (Homo sapiens, UniProt O15379); experiment: HDAC isoform assay, HDAC3; assay type: biochemical; conditions: substrate KI-177; read-out: HDAC3, IC50, ELISA (KI-177)
T6 construct: purchased BioMol
T6 sequence (O15379 whole entry, canonical isoform): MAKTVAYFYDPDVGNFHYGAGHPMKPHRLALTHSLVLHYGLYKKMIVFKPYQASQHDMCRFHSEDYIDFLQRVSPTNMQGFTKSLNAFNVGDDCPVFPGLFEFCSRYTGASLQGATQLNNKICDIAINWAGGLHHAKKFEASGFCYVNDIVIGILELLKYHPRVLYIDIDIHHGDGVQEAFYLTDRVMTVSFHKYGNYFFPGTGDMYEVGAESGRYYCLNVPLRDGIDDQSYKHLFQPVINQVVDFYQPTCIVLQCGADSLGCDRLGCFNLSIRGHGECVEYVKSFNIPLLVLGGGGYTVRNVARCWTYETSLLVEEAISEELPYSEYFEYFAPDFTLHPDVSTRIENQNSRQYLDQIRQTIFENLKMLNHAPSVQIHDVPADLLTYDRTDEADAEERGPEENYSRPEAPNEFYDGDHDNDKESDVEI
T6 sequence (O75376 395-489 partner limits assumed): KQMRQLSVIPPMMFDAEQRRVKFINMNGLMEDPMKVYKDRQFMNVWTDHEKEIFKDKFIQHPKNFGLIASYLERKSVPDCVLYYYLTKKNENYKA
Procedure: The assay measures the ability of a small molecule to inhibit deacetylation of the substrate. Activator reagent recognizes the substrate only if the lysine has been deacetylated.
This homogeneous assay in performed in the same well without washing steps. The HDAC source, nuclear HeLa extract, is incubated with substrate in the presence of an inhibitor compound. At the end of the reaction time, activator solution, containing Trypsin and TSA, is added to stop the deacetylation reaction, and cleave the amino-coumarin from the deacetylated substrate. The plate is then read on either a Perkin Elmer Victor or Envision system using Umbilliferone filter set. […] The signal is directly proportional to the activity of HDACs and compound inhibition of HDAC is monitored by a decrease in signal.

[10] = target: T7, HDAC8 (Homo sapiens, UniProt Q9BY41); experiment: HDAC isoform assay, HDAC8
T7 sequence (Q9BY41 1-377): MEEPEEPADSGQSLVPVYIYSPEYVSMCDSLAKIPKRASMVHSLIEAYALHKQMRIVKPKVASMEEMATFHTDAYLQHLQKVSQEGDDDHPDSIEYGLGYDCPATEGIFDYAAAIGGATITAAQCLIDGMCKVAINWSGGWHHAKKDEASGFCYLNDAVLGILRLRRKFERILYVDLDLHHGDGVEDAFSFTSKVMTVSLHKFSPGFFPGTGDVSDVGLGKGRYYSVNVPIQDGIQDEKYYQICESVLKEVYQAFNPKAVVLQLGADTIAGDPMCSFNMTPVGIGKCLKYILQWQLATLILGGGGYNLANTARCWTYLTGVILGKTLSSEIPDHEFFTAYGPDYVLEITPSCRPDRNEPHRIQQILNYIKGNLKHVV

[11] = tested on: HCT-116 cells; experiment: MTS cell viability assay, HCT-116; assay type: cell-based; conditions: Homo sapiens; HCT-116, 72 hr; read-out: HCT-116, IG50, MTS
Procedure: as §1, §2

[12] = tested on: HH cells; experiment: MTS cell viability assay, HH; assay type: cell-based; conditions: Homo sapiens, 72 hr, read-out: HH, IG50, MTS
Procedure: The MTS cell viability assay was used to determine the potency of proliferation inhibitor with. MTS measures mitochondrial dehydrogenase activity and serves as surrogate readout for the number of viable cells. The protocol described below is based upon the “CellTiter 96 Aqueous Non-Radioactive Cell Proliferation Assay” sold by Promega (Technical Bulletin No. 169).
as §2

T1 sequence (Q9UKV0 whole entry, canonical isoform): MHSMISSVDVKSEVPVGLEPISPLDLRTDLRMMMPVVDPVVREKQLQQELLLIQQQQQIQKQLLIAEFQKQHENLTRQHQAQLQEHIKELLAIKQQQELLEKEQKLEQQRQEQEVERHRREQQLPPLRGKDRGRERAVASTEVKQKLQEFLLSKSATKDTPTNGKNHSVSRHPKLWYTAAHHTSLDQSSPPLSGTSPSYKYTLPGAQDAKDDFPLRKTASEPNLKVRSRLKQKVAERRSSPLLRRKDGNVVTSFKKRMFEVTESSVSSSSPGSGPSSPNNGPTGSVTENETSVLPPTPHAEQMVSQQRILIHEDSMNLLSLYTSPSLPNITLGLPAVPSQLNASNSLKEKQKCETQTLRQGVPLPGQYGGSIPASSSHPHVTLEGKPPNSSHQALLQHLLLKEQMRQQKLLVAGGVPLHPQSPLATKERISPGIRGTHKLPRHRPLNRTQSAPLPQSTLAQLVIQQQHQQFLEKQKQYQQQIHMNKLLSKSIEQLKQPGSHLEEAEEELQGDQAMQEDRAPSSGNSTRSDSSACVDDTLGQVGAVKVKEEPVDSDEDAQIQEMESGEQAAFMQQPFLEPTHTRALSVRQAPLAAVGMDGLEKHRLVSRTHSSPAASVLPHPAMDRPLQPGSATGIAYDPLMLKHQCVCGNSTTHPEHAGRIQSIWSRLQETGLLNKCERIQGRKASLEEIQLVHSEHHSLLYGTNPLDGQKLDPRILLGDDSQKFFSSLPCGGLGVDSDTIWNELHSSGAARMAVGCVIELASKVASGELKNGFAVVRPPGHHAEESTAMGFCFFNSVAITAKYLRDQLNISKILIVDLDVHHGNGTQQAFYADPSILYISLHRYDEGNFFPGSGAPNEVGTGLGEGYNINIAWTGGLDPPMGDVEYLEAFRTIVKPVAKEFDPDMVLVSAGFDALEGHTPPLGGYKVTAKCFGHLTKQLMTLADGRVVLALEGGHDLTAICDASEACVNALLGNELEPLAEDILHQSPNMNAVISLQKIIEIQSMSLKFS

O=C(CCC1CCN(C(=O)c2cn3c4c(cccc24)CCC3)CC1)NO [compound 18, 3-[1-(5,6-dihydro-4H-pyrrolo[3,2,1-ij]quinolin-1-ylcarbonyl)piperidin-4-yl]-N-hydroxypropanamide]
IC50 [1]: 535 nM | IC50 [2]: 35.7 nM | IC50 [3]: 390 nM | IC50 [4]: 69.1 nM | IC50 [5]: 10000 nM | IC50 [6]: 144 nM | IC50 [7]: 91.5 nM | IC50 [8]: 987 nM | IC50 [9]: 29.8 nM | IC50 [10]: 4970 nM | IC50 [11]: 1140 nM | melting point: 110 to 113 °C | IC50 [12]: 186 nM
